Results taken from US20090312521A1 (priority 2004, published 2009).
Values after ≈ are worked out from the molar mass of the structure shown. Non-standard residues stand in square brackets, D forms with d. Residues, ends and D or L forms follow the SMILES beside them. βAla = NCCC(=O)O

Key:
Serratia marcescens = test: Additional antimicrobial test (MIC); assay type: cell-based; settings: Gram −, NB, 22 ° C.
[1] = test system: Erwinia carotovora atroseptica; test: Additional antimicrobial test (MIC); assay type: cell-based; settings: Gram −, NB/BHI, 28/37 ° C.

Row | SMILES | MIC (Serratia marcescens) | MIC [1] | MIC (Enterobacter aerogenes) [µM] | MIC (Erwinia herbicola) [µM] | MIC (Erwinia chrysanthemi) [µM]
1 | CC[C@H](C)[C@H](NC(=O)[C@@H]1CCCN1C(=O)[C@H](CCCNC(=N)N)NC(=O)[C@@H]1CCCN1C(=O)[C@H](Cc1c[nH]cn1)NC(=O)[C@H](CO)NC(=O)[C@@H](NC(=O)[C@@H]1CCCN1C(=O)[C@H](CCCNC(=N)N)NC(=O)[C@@H]1CCCN1C(=O)[C@@H](NC(=O)[C@H](Cc1ccc(O)cc1)NC(=O)[C@@H]1CCCN1C(=O)[C@H](CCCNC(=N)N)NC(=O)[C@@H]1CCCN1C(=O)[C@H](CCCCN)NC(=O)CN)[C@@H](C)O)[C@@H](C)O)C(=O)N[C@@H](CCCNC(=N)N)C(=O)N[C@H](C(=O)O)C(C)C [Peptide 4, GKPRP YTPRP TSHPR PIRV] (H-GKPRPYTPRPTSHPRPIRV-OH; N-terminus assumed) | NI at ≦100 μM | NI at ≦100 μM | 100 (≈ 221 µg/mL) | 6.75 (≈ 14.9 µg/mL) | 50 (≈ 111 µg/mL)
2 | CC[C@H](C)[C@H](NC(=O)[C@@H]1CCCN1C(=O)[C@H](CCCNC(=N)N)NC(=O)[C@@H]1CCCN1C(=O)[C@H](Cc1c[nH]cn1)NC(=O)[C@H](CO)NC(=O)[C@@H](NC(=O)[C@@H]1CCCN1C(=O)[C@H](CCCNC(=N)N)NC(=O)[C@@H]1CCCN1C(=O)[C@@H](NC(=O)[C@H](Cc1ccc(O)cc1)NC(=O)[C@@H]1CCCN1C(=O)[C@H](CCCNC(=N)N)NC(=O)[C@@H]1CCCN1C(=O)[C@H](CCCCN)NC(=O)CCN)[C@@H](C)O)[C@@H](C)O)C(=O)N[C@@H](CCCNC(=N)N)C(=O)N[C@H](C(=O)O)C(C)C [Peptide 14, βAlaKPRP YTPRP TSHPR PIRV] (H-[βAla]KPRPYTPRPTSHPRPIRV-OH; N-terminus assumed) | NI at ≦100 μM | NI at ≦100 μM | 100 (≈ 223 µg/mL) | 6.75 (≈ 15 µg/mL) | 100 (≈ 223 µg/mL)
